Reference: patent US7714134B2, “Compounds and use of tetrahydropyridothiophenes” (4SC AG, priority 2004, dated 2010)

Columns and labels:
[1] = tested on: RKO colon adenocarcinoma cells (RKOp27) arrested by expression of ectopic p27Kip1; assay: Alamar Blue cell viability assay, cell cycle specific mode of action, RKO p27 induced (arrested by Ponasterone A-induced p27Kip1); format: cell-based; conditions: Homo sapiens, RKOp27, 72 h, cells arrested by p27Kip1 induced with 10 μM Ponasterone A, 72 hours incubation
Experimental: To determine the cell cycle specific mode of action, subdlones of RKO colon adenocarcinoma cells (RKOp27 or RKOp21 as described by Schmidt et al. in Oncogene 19, 2423-2429; 2000) are seeded into 96 well flat bottom plates at a density of 16000 cells per well in a volume of 50 μl per well in DMEM growth medium with 10% FCS containing 10 μM Ponasterone A. 24 hours after seeding the 50 μl each of the compound dilutions in DMEM medium are added into each well of the 96 Well plate. Each compound dilution is tested as quadruplicates. Wells containing untreated control cells are filled with 50 μl DMEM medium containing 1% DMSO. The cells are then incubated with the substances for 72 hours at 37° C. in a humidified atmosphere containing 5% carbon dioxide. To determine the viability of the cells, 10 μl of an Alamar Blue solution (Biosource) are added and the fluorescence was measured at an extinction of 544 nm and an emission of 590 nm. For the calculation of the cell viability the emission value from untreated cells is set as 100% viability and the emission rates of treated cells are set in relation to the values of untreated cells. Viabilities are expressed as % values. Viability is compared of proliferating cells grown in the absence of the inducer Ponasterone A, versus viability of cells arrested by the expression of ectopic p27Kip1 induced by Ponasterone A. The data of this experimental setting are summarized in table A (2nd column).

[2] = tested on: RKO (RKOp27) human colon adenocarcinoma cells; assay: Alamar Blue cell viability assay, anti-proliferative/cytotoxic activity, RKO p27 uninduced; format: cell-based; conditions: RKOp27, 72 h, proliferating cells, absence of the inducer Ponasterone A, 72 hours incubation
Experimental: The anti-proliferative/cytotoxic activity of the compounds described herein, can be tested on subdlones of RKO (RKOp27) human colon adenocarcinoma cells (Schmidt et al., Oncogene 19, 2423-2429; 2000) using the Alamar Blue cell viability assay (described in O'Brien et al. Eur J Biochem 267, 5421-5426, 2000). The compounds are dissolved as 20 mM solutions in dimethylsulfoxide (DMSO) and subsequently diluted in semi-logarithmic steps. DMSO dilutions are further diluted 1:100 into Dulbecco's modified Eagle's medium (DMEM) containing 10% fetal calf serum to a final concentration twice as much as the final concentration in the test. RKO subclones are seeded into 96 well flat bottom plates at a density of 4000 cells per well in a volume of 50 µl per well. 24 hours after seeding the 50 μl each of the compound dilutions in DMEM medium are added into each well of the 96 Well plate. Each compound dilution is tested as quadruplicates. Wells containing untreated control cells are filled with 50 μl DMEM medium containing 1% DMSO. The cells are then incubated with the substances for 72 hours at 37° C. in a humidified atmosphere containing 5% carbon dioxide. To determine the viability of the cells, 10 μl of an Alamar Blue solution (Biosource) are added and the fluorescence is measured at an extinction of 544 nm and an emission of 590 nm. For the calculation of the cell viability the emission value from untreated cells is set as 100% viability and the emission rates of treated cells are set in relation to the values of untreated cells. Viabilities are expressed as % values.
The corresponding IC50 values of the compounds for anti-proliferative/cytotoxic activity are determined from the concentration-effect curves.
Representative IC50 values for anti-proliferation/cytotoxicity determined for the compounds mentioned and numbered as Examples in the examples above follow from the following table A (1st column), in which the numbers of the compound correspond to the numbers of the examples. Any or all of the compounds according to the present invention which are listed in the Table A, as well as their salts, are to be mentioned as a particular interesting subject of the present invention.

| SMILES | IC50 [1] [µM] | IC50 [2] [µM] |
| --- | --- | --- |
| N#Cc1c(NC(=O)c2ccccc2)sc2c1CCN(C(=O)OCCc1ccccn1)C2 [Compound 68, 3-Cyano-2-[(1-phenyl-methanoyl)-amino]-4,7-dihydro-5H-thieno[2,3-c]pyridine-6-carboxylic acid 2-pyridin-2-yl-ethyl ester] | > 60 | ≤ 3 |
| CCOC(=O)N1CCc2c(sc(NC(=O)c3ccc(C)cc3)c2C#N)C1 [Compound 50, 3-Cyano-2-[(1-p-tolyl-methanoyl)-amino]-4,7-dihydro-5H-thieno[2,3-c]pyridine-6-carboxylic acid ethyl ester] | > 60 | ≤ 3 |
| COC(=O)COC(=O)N1CCc2c(sc(NC(=O)c3ccccc3)c2C#N)C1 [Compound 93, 3-Cyano-2-[(1-phenyl-methanoyl)-amino]-4,7-dihydro-5H-thieno[2,3-c]pyridine-6-carboxylic acid methoxycarbonylmethyl ester] | > 100 | ≤ 3 |
| N#Cc1c(NC(=O)c2ccccc2)sc2c1CCN(C(=O)OCc1ccncc1)C2 [Compound 66, 3-Cyano-2-[(1-phenyl-methanoyl)-amino]-4,7-dihydro-5H-thieno[2,3-c]pyridine-6-carboxylic acid pyridin-4-ylmethyl ester] | > 60 | ≤ 3 |
| N#Cc1c(NC(=O)c2ccccc2)sc2c1CCN(C(=O)CCc1cccnc1)C2 [Compound 41, N-[3-Cyano-6-(3-pyridin-3-yl-propanoyl)-4,5,6,7-tetrahydro-thieno[2,3-c]pyridin-2-yl]-benzamide] | > 60 | ≤ 3 |
| CCOC(=O)N1CCc2c(sc(NC(=O)c3cccc(Cl)c3)c2C#N)C1 [Compound 48, 2-{[1-(3-Chloro-phenyl)-methanoyl]-amino}-3-cyano-4,7-dihydro-5H-thieno[2,3-c]pyridine-6-carboxylic acid ethyl ester] | > 60 | ≤ 3 |
| CCOC(=O)N1CCc2c(sc(NC(=O)c3cccc(OC)c3)c2C#N)C1 [Compound 12, N-(6-Ethoxycarbonyl-3-cyano-4,5,6,7-tetrahydro-thieno[2,3-c]pyridin-2-yl)-3-methoxybenzamide] | > 100 | ≤ 2 |
| N#Cc1c(NC(=O)c2ccccc2)sc2c1CCN(C(=O)CCCc1cccs1)C2 [Compound 28, N-[3-Cyano6-(4-thiophen-2-yl-butanoyl)-4,5,6,7-tetrahydro-thieno[2,3-c]pryridin-2-yl]-benzamide] | > 100 | ≤ 2 |
| N#Cc1c(NC(=O)c2ccccc2)sc2c1CCN(C(=O)OCC(O)CO)C2 (stereo not drawn) [Compound 76, 3-Cyano-2-[(1-phenyl-methanoyl)-amino]-4,7-dihydro-5H-thieno[2,3-c]pyridine-6-carboxylic acid 2,3-dihydroxy-propyl ester] | > 60 | ≤ 3 |
| CCCCCCC(=O)N1CCc2c(sc(NC(=O)c3ccccc3)c2C#N)C1 [Compound 6] | > 100 | ≤ 2 |

Continued, in another order:

| IC50 [1] [µM] | SMILES | IC50 [2] [µM] |
| --- | --- | --- |
| > 100 | CCOCCCNC(=O)N1CCc2c(sc(NC(=O)c3ccccc3)c2C#N)C1 [Compound 100, 3-Cyano-2-[(1-phenyl-methanoyl)-amino]-4,7-dihydro-5H-hieno[2,3-c]pyridine-6-carboxylic acid (3-ethoxy-propyl)-amide] | ≤ 3 |
| > 60 | N#Cc1c(NC(=O)c2ccccc2)sc2c1CCN(S(=O)(=O)c1ccc(N3CCOCC3)nc1)C2 [Compound 77, N-[3-Cyano-6-(6-morpholin-4-yl-pyridine-3-sulfonyl)-4,5,6,7-tetrahydro-thieno[2,3-c]pyridin-2-yl]-benzamide] | ≤ 3 |
| > 60 | N#Cc1c(NC(=O)c2ccccc2)sc2c1CCN(C(=O)NCCc1ccncc1)C2 [Compound 80, 3-Cyano-2-[(1-phenyl-methanoyl)-amino]-4,7-dihydro-5H-thieno[2,3-c]pyridine-6-carboxylic acid (2-pyridin-4-yl-ethyl)-amide] | ≤ 3 |
| > 60 | COC(=O)CCCC(=O)N1CCc2c(sc(NC(=O)c3ccccc3)c2C#N)C1 [Compound 38, 5-{3-Cyano-2-[(1-phenyl-methanoyl)-amino]-4,7-dihydro-5H-thieno[2,3-c]pyridin-6-yl}-5-oxo-pentanoic acid methyl ester] | ≤ 3 |
| > 60 | N#Cc1c(NC(=O)c2ccccc2)sc2c1CCN(C(=O)NCCc1ccc([N+](=O)[O-])cc1)C2 [Compound 82, 3-Cyano-2-[(1-phenyl-methanoyl)amino]-4,7-dihydro-5H-thieno[2,3-c]pyridine-6-carboxylic acid [2-(4-nitro-phenyl)-ethyl]-amide] | ≤ 3 |
| > 60 | CCOC(=O)N1CCc2c(sc(NC(=O)c3ccc(OC)cc3)c2C#N)C1 [Compound 49, 3-Cyano-2-{[1-(4-methoxy-phenyl)-methanoyl]-amino}-4,7-dihydro-5H-thieno[2,3-c]pyridine-6-carboxylic acid ethyl ester] | ≤ 3 |
| > 60 | N#Cc1c(NC(=O)c2ccccc2)sc2c1CCN(C(=O)OCCCc1ccncc1)C2 [Compound 69, 3-Cyano-2-[(1-phenyl-methanoyl)-amino]-4,7-dihydro-5H-thieno[2,3-c]pyridine-6-carboxylic acid 3-pyridin-4-yl-propyl ester] | ≤ 3 |
| > 60 | COCCOCCOC(=O)N1CCc2c(sc(NC(=O)c3ccccc3)c2C#N)C1 [Compound 75, 3-Cyano-2-[(1-phenyl-methanoyl)amino]-4,7-dihydro-5H-thieno[2,3-c]pyridine-6-carboxylic acid 2-(2-methoxy-ethoxy)-ethyl ester] | ≤ 3 |
| > 100 | N#Cc1c(NC(=O)c2ccccc2)sc2c1CCN(C(=O)CCCO)C2 [Compound 88, N-[3-Cyano-6-(4-hydroxy-butanoyl)-4,5,6,7-tetrahydro-thieno[2,3-c]pyridin-2-yl]-benzamide] | ≤ 3 |
| > 60 | N#Cc1c(NC(=O)c2ccccc2)sc2c1CCN(C(=O)OCCCc1cccnc1)C2 [Compound 72, 3-Cyano-2-[(1-phenyl-methanoyl)-amino]-4,7-dihydro-5H-thieno[2,3-c]pyridine-6-carboxylic acid 3-pyridin3-yl-propyl ester] | ≤ 3 |
| > 60 | CCOC(=O)N1CCc2c(sc(NC(=O)c3ccc([N+](=O)[O-])cc3)c2C#N)C1 [Compound 44, 3-Cyano-2-{[1-(4-nitro-phenyl)-methanoyl]-amino}-4,7-dihydro-5H-thieno[2,3-c]pyridine-6-carboxylic acid ethyl ester] | ≤ 3 |
| > 60 | CC(C)COC(=O)N1CCc2c(sc(NC(=O)c3ccccc3)c2C#N)C1 [Compound 56, 3-Cyano-2-[(1-phenyl-methanoyl)-amino]-4,7-dihydro-5H-thieno[2,3-c]pyridine-6-carboxylic acid isobutyl ester] | ≤ 3 |
| > 100 | COc1cc(OC)cc(C(=O)Nc2sc3c(c2C#N)CCN(C(C)=O)C3)c1 [Compound 26, N-(6-Acetyl-3-cyano-4,5,6,7-tetrahydro-thieno[2,3-c]pyridin-2-yl)-3,5-dimethoxy-benzamide] | ≤ 2 |
| > 100 | COCCC(=O)N1CCc2c(sc(NC(=O)c3ccccc3)c2C#N)C1 [Compound 7, N-(3-Cyano-7-methoxyethylcarbonyl-4,5,6,7-tetrahydro-thien[2,3-c]pyridin-2-yl)-benzamide] | ≤ 2 |
